Laboratory results published in paper PMC10673369, “Preliminary SAR of Novel Pleuromutilin–Polyamine Conjugates” (Microorganisms, 2023).

Key:
[1] = Cytotoxicity assay, HEK293; format: cell-based; details: human; HEK293 cells; mean (n = 2); read-out: Cytotoxicity (IC50), concentration of compound at 50% cytotoxicity
Description: Cytotoxicity assays were conducted using reported protocols (see Supplementary File). […]
HEK293 cells were counted manually in a Neubauer hemocytometer and plated at a density of 5,000 cells/well into each well of the 384-well plates containing the 25x (2 µL) concentrated compounds [26,27]. The medium used was Dulbecco's modified Eagle’s medium (DMEM), supplemented with 10% fetal bovine serum (FBS). Cells were incubated together with the compounds for 20 h at 37 °C, 5% CO2.
To measure cytotoxicity, 5 µL (equals 100 µM final) of resazurin was added to each well after incubation and incubated for further 3 h at 37 °C with 5% CO2. After the final incubation, fluorescence intensity […]
reader. CC50 values (concentration at 50% cytotoxicity) were calculated by normalizing the fluorescence readout, with 74 µg/mL tamoxifen as negative control (0%) and normal cell growth as positive control (100%). The concentration-dependent percentage cytotoxicity was fitted to a dose–response function (using Pipeline Pilot) and CC50 values were determined. […]

[2] = test system: C. neoformans ATCC 208821; test: MIC, CO-ADD antifungal assay, C. neoformans; format: cell-based, Cryptococcus neoformans; details: for MIC: Cryptococcus neoformans, ATCC208821, mean (n = 2)
Description: (§1) The susceptibility of bacterial strains S. aureus (ATCC 25923), E. coli (ATCC 25922), and P. aeruginosa (ATCC 27853 or PAO1) to antibiotics and compounds was determined using reported protocols. Additional antimicrobial evaluation against MRSA (ATCC 43300), Klebsiella pneumoniae (ATCC 700603), A. baumannii (ATCC 19606), Candida albicans (ATCC 90028), and Cryptococcus neoformans (ATCC 208821) was undertaken at the Community for Open Antimicrobial Drug Discovery at The University of Queensland (Australia) according to their standard protocols as reported previously. […]
(§2) 2.3. Antimicrobial Assays
(§3) The susceptibility of bacterial strains S. aureus (ATCC 25923), E. coli (ATCC 25922), and P. […]
baumannii (ATCC 19606), Candida albicans (ATCC 90028), and Cryptococcus neoformans (ATCC 208821) was undertaken at the Community for Open Antimicrobial Drug Discovery at The University of Queensland (Australia) according to their standard protocols as reported previously. […]
For the antifungal assay, fungi strains were cultured for 3 days on YPD agar at 30 °C. A yeast suspension of 1 × 106 to 5 × 10^6 CFU/mL was prepared from five colonies. These stock suspensions were diluted with yeast nitrogen base (YNB) (Becton Dickinson, 233520) broth to a final concentration of 2.5 × 10^3 CFU/mL. The compounds were serially diluted 2-fold across the wells of 96-well plates (Corning 3641, non-binding surface), with compound concentrations ranging from 0.015 to 64 µg/mL and final volumes of 50 µL, plated in duplicate. Then, 50 µL of the fungi suspension that was previously prepared in YNB broth to the final concentration of 2.5 × 10^3 CFU/mL was added to each well of the compound-containing plates, giving a final compound concentration range of 0.008 to 32 µg/mL. Plates were covered and incubated at 35 °C for 36 h without shaking. C. albicans MICs were determined by measuring the absorbance at OD530. For C. neoformans, resazurin was added at 0.006% final concentration to each well and incubated for a further 3 h before MICs were determined by measuring […]
(§4) Colistin and vancomycin were used as positive bacterial inhibitor standards for Gram-negative and Gram-positive bacteria, respectively. Fluconazole was used as a positive fungal inhibitor standard for C. albicans and C. neoformans. The antibiotics were provided in […], with 3 above and 3 below its MIC value, and plated into the first 8 wells of column 23 of the 384-well NBS plates. The quality control (QC) of the assays was determined by the antimicrobial controls and the Z'-factor (using positive and negative controls). Each plate was deemed to fulfil the quality criteria (pass QC) if the Z'- […]
(§5) inhibition at their highest concentration, and no growth inhibition at their lowest concentration.
(§6) 2.4. Determination of the MICs of Antibiotics in the Presence of Synergizing Compounds

[3] = test system: A. baumannii ATCC 19606; test: MIC, CO-ADD broth microdilution, A. baumannii; format: cell-based; details: for MIC: Acinetobacter baumannii, ATCC19606, mean (n = 2)
Description: as §1, §2, §3
baumannii (ATCC 19606), Candida albicans (ATCC 90028), and Cryptococcus neoformans (ATCC 208821) was undertaken at the Community for Open Antimicrobial Drug Discovery at The University of Queensland (Australia) according to their standard protocols as reported previously. For antimicrobial assays, the tested strains were cultured in either Luria broth (LB) (In Vitro Technologies, USB75852), nutrient broth (NB) (Becton Dickson, 234000), or MHB at 37 °C overnight. A sample of culture was then diluted 40-fold in fresh MHB and incubated at 37 °C for 1.5−2 h. The compounds were serially diluted 2-fold across the wells of 96-well plates (Corning 3641, non-binding surface), with compound concentrations ranging from 0.015 to 64 µg/ mL, and plated in duplicate. The resultant mid-log phase cultures were diluted to the final concentration of 1 × 10^6 CFU/mL; then, 50 µL was added to each well of the compound-containing plates, giving a final compound concentration range of 0.008 to 32 µg/mL and a cell density of 5 × 10^5 CFU/mL. All plates were then covered and incubated at 37 °C for 18 h. Resazurin was added at 0.001% final concentration to each well and incubated for 2 h before MICs […]
For C. neoformans, resazurin was added at 0.006% final concentration to each well and incubated for a further 3 h before MICs were determined by measuring […]
as §4, §5, §6

MIC [2] [µM]	MIC C.n. ([2]; mean (n = 2))	MIC [3] [µM]	MIC A.b. ([3]; mean (n = 2))	SMILES	IC50 at 20 h [1] [µM]
> 64.8	no activity	> 64.8	no activity	C=C[C@]1(C)C[C@@H](OC(=O)CSCCN(CC)CC)[C@]2(C)[C@H](C)CC[C@]3(CCC(=O)[C@H]32)[C@@H](C)[C@@H]1O [Compound 2, Tiamulin, reference compound]	> 64.8
0.72	–	> 23.2	–	C=C[C@]1(C)C[C@@H](OC(=O)CNCCCNCCCCNCCCNCC(=O)O[C@@H]2C[C@@](C)(C=C)[C@@H](O)[C@H](C)[C@]34CCC(=O)[C@H]3[C@@]2(C)[C@H](C)CC4)[C@]2(C)[C@H](C)CC[C@]3(CCC(=O)[C@H]32)[C@@H](C)[C@@H]1O.O=C(O)C(F)(F)F.O=C(O)C(F)(F)F.O=C(O)C(F)(F)F.O=C(O)C(F)(F)F [Compound 9a, N^1,N^1′-(Butane-1,4-diyl)bis(N^3-(2-(((3aR,4R,5R,7S,8S,9R,9aS,12R)-8-hydroxy-4,7,9,12-tetramethyl-3-oxo-7-vinyldecahydro-4,9a-propanocyclopenta [8]annulen-5-yl)oxy)-2-oxoethyl)propane-1,3-diaminium) 2,2,2-trifluoroacetate]	> 23.2
≤ 0.18	–	> 22.7	–	C=C[C@]1(C)C[C@@H](OC(=O)CNCCCNCCCCCCNCCCNCC(=O)O[C@@H]2C[C@@](C)(C=C)[C@@H](O)[C@H](C)[C@]34CCC(=O)[C@H]3[C@@]2(C)[C@H](C)CC4)[C@]2(C)[C@H](C)CC[C@]3(CCC(=O)[C@H]32)[C@@H](C)[C@@H]1O.O=C(O)C(F)(F)F.O=C(O)C(F)(F)F.O=C(O)C(F)(F)F.O=C(O)C(F)(F)F [Compound 9b, N^1,N^1′-(Hexane-1,6-diyl)bis(N^3-(2-(((3aR,4R,5R,7S,8S,9R,9aS,12R)-8-hydroxy-4,7,9,12-tetramethyl-3-oxo-7-vinyldecahydro-4,9a-propanocyclopenta [8]annulen-5-yl)oxy)-2-oxoethyl)propane-1,3-diaminium) 2,2,2-trifluoroacetate]	> 22.7
≤ 0.18	–	> 22.5	–	C=C[C@]1(C)C[C@@H](OC(=O)CNCCCNCCCCCCCNCCCNCC(=O)O[C@@H]2C[C@@](C)(C=C)[C@@H](O)[C@H](C)[C@]34CCC(=O)[C@H]3[C@@]2(C)[C@H](C)CC4)[C@]2(C)[C@H](C)CC[C@]3(CCC(=O)[C@H]32)[C@@H](C)[C@@H]1O.O=C(O)C(F)(F)F.O=C(O)C(F)(F)F.O=C(O)C(F)(F)F.O=C(O)C(F)(F)F [Compound 9c, N^1,N^1′-(Heptane-1,7-diyl)bis(N^3-(2-(((3aR,4R,5R,7S,8S,9R,9aS,12R)-8-hydroxy-4,7,9,12-tetramethyl-3-oxo-7-vinyldecahydro-4,9a-propanocyclopenta [8]annulen-5-yl)oxy)-2-oxoethyl)propane-1,3-diaminium) 2,2,2-trifluoroacetate]	> 22.5
≤ 0.17	–	> 22.3	–	C=C[C@]1(C)C[C@@H](OC(=O)CNCCCNCCCCCCCCNCCCNCC(=O)O[C@@H]2C[C@@](C)(C=C)[C@@H](O)[C@H](C)[C@]34CCC(=O)[C@H]3[C@@]2(C)[C@H](C)CC4)[C@]2(C)[C@H](C)CC[C@]3(CCC(=O)[C@H]32)[C@@H](C)[C@@H]1O.O=C(O)C(F)(F)F.O=C(O)C(F)(F)F.O=C(O)C(F)(F)F.O=C(O)C(F)(F)F [Compound 9d, N^1,N^1′-(Octane-1,8-diyl)bis(N^3-(2-(((3aR,4R,5R,7S,8S,9R,9aS,12R)-8-hydroxy-4,7,9,12-tetramethyl-3-oxo-7-vinyldecahydro-4,9a-propanocyclopenta [8]annulen-5-yl)oxy)-2-oxoethyl)propane-1,3-diaminium) 2,2,2-trifluoroacetate]	> 22.3
≤ 0.17	–	> 21.9	–	C=C[C@]1(C)C[C@@H](OC(=O)CNCCCNCCCCCCCCCCNCCCNCC(=O)O[C@@H]2C[C@@](C)(C=C)[C@@H](O)[C@H](C)[C@]34CCC(=O)[C@H]3[C@@]2(C)[C@H](C)CC4)[C@]2(C)[C@H](C)CC[C@]3(CCC(=O)[C@H]32)[C@@H](C)[C@@H]1O.O=C(O)C(F)(F)F.O=C(O)C(F)(F)F.O=C(O)C(F)(F)F.O=C(O)C(F)(F)F [Compound 9e, N^1,N^1′-(Decane-1,10-diyl)bis(N^3-(2-(((3aR,4R,5R,7S,8S,9R,9aS,12R)-8-hydroxy-4,7,9,12-tetramethyl-3-oxo-7-vinyldecahydro-4,9a-propanocyclopenta [8]annulen-5-yl)oxy)-2-oxoethyl)propane-1,3-diaminium) 2,2,2-trifluoroacetate]	> 21.9
≤ 0.17	–	2.7	–	C=C[C@]1(C)C[C@@H](OC(=O)CNCCCNCCCCCCCCCCCCNCCCNCC(=O)O[C@@H]2C[C@@](C)(C=C)[C@@H](O)[C@H](C)[C@]34CCC(=O)[C@H]3[C@@]2(C)[C@H](C)CC4)[C@]2(C)[C@H](C)CC[C@]3(CCC(=O)[C@H]32)[C@@H](C)[C@@H]1O.O=C(O)C(F)(F)F.O=C(O)C(F)(F)F.O=C(O)C(F)(F)F.O=C(O)C(F)(F)F [Compound 9f, N^1,N^1′-(Dodecane-1,12-diyl)bis(N^3-(2-(((3aR,4R,5R,7S,8S,9R,9aS,12R)-8-hydroxy-4,7,9,12-tetramethyl-3-oxo-7-vinyldecahydro-4,9a-propanocyclopenta [8]annulen-5-yl)oxy)-2-oxoethyl)propane-1,3-diaminium) 2,2,2-trifluoroacetate]	8.3
